Assay results as given in ChEMBL document CHEMBL4622904, “The discovery of azetidine-piperazine di-amides as potent, selective and reversible monoacylglycerol lipase (MAGL) inhibitors” (Bioorg Med Chem Lett, 2020).
The source made the active and inactive calls. The calls are words filed in the database; no cut-off is given here.

Key:
[1] = Oral bioavailability in rat at 10 mg/kg; assay type: ADME, organism-based; conditions: in vivo
[2] = Tmax in rat at 10 mg/kg, po; assay type: ADME, organism-based; conditions: in vivo
[3] = Cmax in rat at 10 mg/kg, po; assay type: ADME, organism-based; parameters: dose 10 mg/kg, route oral; conditions: in vivo
Rattus norvegicus [4] = test: Reversal of complete freund's adjuvant-induced thermal hyperalgesia in Sprague-Dawley rat model assessed as increase in paw withdrawal latency time at 30 mg/kg, po pre-exposed to thermal stimuli followed by CFA injection and subsequent compound administration; assay type: functional, organism-based; conditions: TDE = time-dependent effect
Rattus norvegicus [5] = test: Reversal of complete freund's adjuvant-induced thermal hyperalgesia in Sprague-Dawley rat model assessed as increase in paw withdrawal latency time at 1 to 30 mg/kg, po pre-exposed to thermal stimuli followed by CFA injection and subsequent compound administration relative to control; assay type: functional
Rattus norvegicus [6] = test: Reversal of complete freund's adjuvant-induced thermal hyperalgesia in Sprague-Dawley rat model assessed as increase in paw withdrawal latency time at 1 to 30 mg/kg, po pre-exposed to thermal stimuli followed by CFA injection and subsequent compound administration measured after 30 to 180 mins; assay type: functional, organism-based
Rattus norvegicus [7] = test: Reversal of complete freund's adjuvant-induced thermal hyperalgesia in po dosed Sprague-Dawley rat model assessed as increase in paw withdrawal latency time pre-exposed to thermal stimuli followed by CFA injection and subsequent compound administration; assay type: functional
Rattus norvegicus [8] = test: Reversal of complete freund's adjuvant-induced thermal hyperalgesia in Sprague-Dawley rat model assessed as increase in paw withdrawal latency time at 1 to 30 mg/kg, po pre-exposed to thermal stimuli followed by CFA injection and subsequent compound administration; assay type: functional
[9] = Drug concentration in blood of Sprague-Dawley rat at 1 mg/kg, po; assay type: ADME, organism-based; conditions: in vivo, read-out: Ct
[10] = Drug concentration in blood of Sprague-Dawley rat at 3 mg/kg, po; assay type: ADME, organism-based; conditions: in vivo, read-out: Ct
[11] = Drug concentration in blood of Sprague-Dawley rat at 10 mg/kg, po; assay type: ADME, organism-based; conditions: in vivo, read-out: Ct
[12] = Drug concentration in blood of Sprague-Dawley rat at 30 mg/kg, po; assay type: ADME, organism-based; conditions: in vivo, read-out: Ct
[13] = Drug concentration in brain of Sprague-Dawley rat at 1 mg/kg, po; assay type: ADME, organism-based; conditions: in vivo, read-out: Ct
[14] = Drug concentration in brain of Sprague-Dawley rat at 3 mg/kg, po; assay type: ADME, organism-based; conditions: in vivo, read-out: Ct
[15] = Drug concentration in brain of Sprague-Dawley rat at 10 mg/kg, po; assay type: ADME, organism-based; conditions: in vivo, read-out: Ct
[16] = Drug concentration in brain of Sprague-Dawley rat at 30 mg/kg, po; assay type: ADME, organism-based; conditions: in vivo, read-out: Ct
Rattus norvegicus [17] = test: Effect on 2-AG level in brain of Sprague-Dawley rat 1 mg/kg, po (reference value: 11.96 nmol/g); assay type: functional
Rattus norvegicus [18] = test: Effect on 2-AG level in brain of Sprague-Dawley rat 3 mg/kg, po (reference value: 11.96 nmol/g); assay type: functional
Rattus norvegicus [19] = test: Effect on 2-AG level in brain of Sprague-Dawley rat 10 mg/kg, po (reference value: 11.96 nmol/g); assay type: functional
Rattus norvegicus [20] = test: Effect on 2-AG level in brain of Sprague-Dawley rat 30 mg/kg, po (reference value: 11.96 nmol/g); assay type: functional
[21] = target: T1, Fatty-acid amide hydrolase 1 (Homo sapiens, UniProt O00519); test: Inhibition of FAAH (unknown origin)
T1 sequence (O00519 whole entry): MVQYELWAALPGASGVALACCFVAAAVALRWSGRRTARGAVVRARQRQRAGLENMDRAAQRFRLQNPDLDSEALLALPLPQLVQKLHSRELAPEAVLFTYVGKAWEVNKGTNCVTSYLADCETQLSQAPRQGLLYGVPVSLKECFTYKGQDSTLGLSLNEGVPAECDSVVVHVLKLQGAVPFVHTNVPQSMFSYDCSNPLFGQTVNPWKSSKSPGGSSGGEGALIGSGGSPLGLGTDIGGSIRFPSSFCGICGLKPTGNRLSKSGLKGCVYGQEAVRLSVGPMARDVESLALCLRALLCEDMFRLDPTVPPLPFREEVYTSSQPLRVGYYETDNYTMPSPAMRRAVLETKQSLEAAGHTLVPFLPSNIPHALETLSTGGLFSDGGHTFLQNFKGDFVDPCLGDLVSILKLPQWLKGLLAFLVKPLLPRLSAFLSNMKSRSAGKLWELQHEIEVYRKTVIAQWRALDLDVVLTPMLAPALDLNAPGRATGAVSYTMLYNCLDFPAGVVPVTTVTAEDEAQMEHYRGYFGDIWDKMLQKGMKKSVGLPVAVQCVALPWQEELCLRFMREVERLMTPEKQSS

Cannabinoid receptor 1 = Cannabinoid receptor 1 (Homo sapiens, UniProt P21554); test: Binding affinity to CB1 receptor (unknown origin); assay type: ADME
Cannabinoid receptor 2 = Cannabinoid receptor 2 (Homo sapiens, UniProt P34972); test: Binding affinity to CB2 receptor (unknown origin); assay type: ADME
Tryptase (Homo sapiens) = Tryptase (Homo sapiens) (UniProt Q9BZJ3+Q15661+Q9NRR2); test: Inhibition of tryptase (unknown origin) at 10 uM relative to control; assay type: protein assay
Homo sapiens = species on record: Homo sapiens; test: Inhibition of elastase (unknown origin) at 10 uM relative to control
[22] = target: Plasminogen (Homo sapiens) (UniProt P00747); test: Inhibition of plasmin (unknown origin) at 10 uM relative to control
[23] = target: Chymotrypsin (Homo sapiens) (UniProt Q99895+P17538+P40313+Q6GPI1); test: Inhibition of chymotrypsin (unknown origin) at 10 uM relative to control; assay type: protein assay
[24] = target: Tissue-type plasminogen activator (Homo sapiens) (UniProt P00750); test: Inhibition of TPA (unknown origin) at 10 uM relative to control
Chain of Tissue-type plasminogen activator (Homo sapiens) (P00750 36-562 limits assumed): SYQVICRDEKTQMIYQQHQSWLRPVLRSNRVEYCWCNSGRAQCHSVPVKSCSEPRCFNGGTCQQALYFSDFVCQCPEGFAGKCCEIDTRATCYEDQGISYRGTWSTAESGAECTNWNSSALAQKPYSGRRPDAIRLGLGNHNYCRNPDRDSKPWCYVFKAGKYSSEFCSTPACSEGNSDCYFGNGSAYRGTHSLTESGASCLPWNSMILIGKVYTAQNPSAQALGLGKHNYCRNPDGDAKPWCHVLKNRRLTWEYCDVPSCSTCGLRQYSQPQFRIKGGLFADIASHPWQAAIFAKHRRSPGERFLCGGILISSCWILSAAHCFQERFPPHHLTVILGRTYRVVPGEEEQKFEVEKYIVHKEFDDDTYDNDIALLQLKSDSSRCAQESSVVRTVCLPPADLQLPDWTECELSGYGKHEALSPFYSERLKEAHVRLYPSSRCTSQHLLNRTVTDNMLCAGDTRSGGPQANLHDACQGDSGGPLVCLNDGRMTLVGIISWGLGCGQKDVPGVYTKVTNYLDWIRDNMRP

Chain of Cannabinoid receptor 1 (P21554 whole entry): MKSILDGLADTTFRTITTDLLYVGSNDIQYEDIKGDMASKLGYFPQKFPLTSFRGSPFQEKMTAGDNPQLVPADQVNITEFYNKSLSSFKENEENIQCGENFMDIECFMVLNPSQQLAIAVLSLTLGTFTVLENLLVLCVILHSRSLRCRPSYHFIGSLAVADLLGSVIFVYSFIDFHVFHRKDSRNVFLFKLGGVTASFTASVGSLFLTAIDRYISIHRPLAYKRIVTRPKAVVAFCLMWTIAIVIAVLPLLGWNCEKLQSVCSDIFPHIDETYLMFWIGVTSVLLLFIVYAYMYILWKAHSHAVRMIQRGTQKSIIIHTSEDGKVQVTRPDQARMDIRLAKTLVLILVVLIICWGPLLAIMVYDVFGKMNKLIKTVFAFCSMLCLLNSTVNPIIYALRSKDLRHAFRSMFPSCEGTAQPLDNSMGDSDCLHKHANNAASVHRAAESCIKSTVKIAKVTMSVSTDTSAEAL
Chain of Cannabinoid receptor 2 (P34972 whole entry): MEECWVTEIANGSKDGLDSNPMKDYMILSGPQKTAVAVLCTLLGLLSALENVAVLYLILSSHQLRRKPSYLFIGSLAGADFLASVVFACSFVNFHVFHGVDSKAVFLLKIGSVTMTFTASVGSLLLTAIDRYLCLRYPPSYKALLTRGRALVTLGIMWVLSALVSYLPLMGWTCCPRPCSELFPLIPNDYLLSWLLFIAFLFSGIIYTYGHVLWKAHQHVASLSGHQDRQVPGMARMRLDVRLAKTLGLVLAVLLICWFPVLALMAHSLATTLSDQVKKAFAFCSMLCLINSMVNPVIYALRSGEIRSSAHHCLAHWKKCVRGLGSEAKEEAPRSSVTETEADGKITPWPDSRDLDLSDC
Chain of Plasminogen (Homo sapiens) (P00747 97-580 limits assumed): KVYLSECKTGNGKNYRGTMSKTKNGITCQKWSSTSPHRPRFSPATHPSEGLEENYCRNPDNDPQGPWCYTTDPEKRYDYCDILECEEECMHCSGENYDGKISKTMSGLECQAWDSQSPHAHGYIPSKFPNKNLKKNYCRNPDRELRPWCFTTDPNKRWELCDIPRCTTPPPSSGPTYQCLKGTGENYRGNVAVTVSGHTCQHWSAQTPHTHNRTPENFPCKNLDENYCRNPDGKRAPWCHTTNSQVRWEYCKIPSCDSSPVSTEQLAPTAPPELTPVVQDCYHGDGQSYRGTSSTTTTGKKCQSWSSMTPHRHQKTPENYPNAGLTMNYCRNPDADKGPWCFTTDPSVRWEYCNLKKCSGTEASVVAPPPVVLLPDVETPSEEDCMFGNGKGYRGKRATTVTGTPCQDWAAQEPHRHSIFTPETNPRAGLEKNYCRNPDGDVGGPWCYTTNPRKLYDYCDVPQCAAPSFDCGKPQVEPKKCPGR
Chain of Plasminogen (Homo sapiens) (P00747 581-810 limits assumed): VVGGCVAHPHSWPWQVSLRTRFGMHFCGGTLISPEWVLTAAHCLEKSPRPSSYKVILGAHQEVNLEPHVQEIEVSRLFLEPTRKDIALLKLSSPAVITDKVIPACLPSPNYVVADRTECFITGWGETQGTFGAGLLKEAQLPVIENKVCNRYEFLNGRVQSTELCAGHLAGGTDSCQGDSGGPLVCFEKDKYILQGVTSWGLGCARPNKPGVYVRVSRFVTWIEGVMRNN

Compound: O=C(c1ccc2c(ccn2-c2ccc(F)cc2)c1)N1CC(N2CCN(C(=O)c3nccs3)CC2)C1
- bioavailability [1]: 45%
- Tmax [2]: 1.75 h
- Cmax [3]: 710 ng/mL
- Activity (Rattus norvegicus [4]): Tde
- Activity (Rattus norvegicus [5]): 100%
- Activity (Rattus norvegicus [6]): Active
- ED50 (Rattus norvegicus [7]): 3 mg/kg
- Time (Rattus norvegicus [8]): 100 min
- concentration [9]: 24.9 nM
- concentration [10]: 135 nM
- concentration [11]: 519 nM
- concentration [12]: 3070 nM
- concentration [13]: 142 nM
- concentration [14]: 339 nM
- concentration [15]: 668 nM
- concentration [16]: 3540 nM
- Activity (Rattus norvegicus [17]): 19.28 nmol/g
- Activity (Rattus norvegicus [18]): 33.01 nmol/g
- Activity (Rattus norvegicus [19]): 46.43 nmol/g
- Activity (Rattus norvegicus [20]): 108.4 nmol/g
- IC50 [21]: 4 µM
- IC50 (Cannabinoid receptor 1): > 10 µM
- IC50 (Cannabinoid receptor 2): > 10 µM
- inhibition (Tryptase (Homo sapiens)): 2%
- inhibition (Homo sapiens): 4%
- inhibition [22]: 4%
- inhibition [23]: -3%
- inhibition [24]: 6%
